Laboratory results as given in PubChem BioAssay AID330 (DTP/NCI, 2004).
Where “and” joins values, the source holds several entries; their conditions need not be identical. Equal values may be shown once. Toxic doses and inconclusive results are not listed.

Tested on: P388 leukemia ip, CD2F1 mice, survival T/C
Assay: NCI In Vivo Anticancer Drug Screen. Data for tumor model P388 Leukemia (intraperitoneal) in CD2F1 (CDF1) mice
Details: endpoint: median survival time, higher = longer survival
Summary of the method: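 Mice carrying the transplanted tumor received test compound or vehicle. Survival was recorded in each group, and the value is the treated-group measurement divided by that of the vehicle-treated control group.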

[1] = dose: 50.0 mg/kg/injection, schedule: Q01DX009 (ip), vehicle: Klucel (hydroxypropylcellulose) (HPC)
[2] = dose: 50.0 mg/kg/injection, schedule: Q04DX003 (ip), vehicle: saline
[3] = dose: 100.0 mg/kg/injection, schedule: Q04DX003 (ip), vehicle: saline
[4] = dose: 100.0 mg/kg/injection, schedule: Q01DX009 (ip), vehicle: saline with Tween-80
[5] = dose: 200.0 mg/kg/injection, schedule: Q01DX009 (ip), vehicle: saline with Tween-80
[6] = dose: 50.0 mg/kg/injection, schedule: Q01DX005 (ip), vehicle: saline with Tween-80
[7] = dose: 100.0 mg/kg/injection, schedule: Q01DX005 (ip), vehicle: saline with Tween-80
[8] = dose: 200.0 mg/kg/injection, schedule: Q01DX005 (ip), vehicle: saline with Tween-80
[9] = dose: 50.0 mg/kg/injection, schedule: Q01DX009 (ip), vehicle: saline with Tween-80
[10] = dose: 12.5 mg/kg/injection, schedule: Q01DX009 (ip), vehicle: saline with Tween-80
[11] = dose: 25.0 mg/kg/injection, schedule: Q01DX009 (ip), vehicle: saline with Tween-80

With `CSc1cnc(N)s1` the T/C (dose: 12.5 mg/kg/injection, schedule: Q01DX009 (ip), vehicle: Klucel (hydroxypropylcellulose) (HPC)) was 108 % of control, the T/C (dose: 25.0 mg/kg/injection, schedule: Q01DX009 (ip), vehicle: Klucel (hydroxypropylcellulose) (HPC)) was 115 % of control and the T/C [1] was 100 % of control. The T/C (dose: 100.0 mg/kg/injection, schedule: Q01DX009 (ip), vehicle: Klucel (hydroxypropylcellulose) (HPC)) was 104 % of control.

In the case of `OCC1(C2CCCNC2)OCCO1` (stereo not given), the T/C (dose: 25.0 mg/kg/injection, schedule: Q01DX005 (ip), vehicle: saline) is reported as 100 % of control, the T/C (dose: 50.0 mg/kg/injection, schedule: Q01DX005 (ip), vehicle: saline) is reported as 111 % of control and 97 % of control and the T/C (dose: 100.0 mg/kg/injection, schedule: Q01DX005 (ip), vehicle: saline) is reported as 107 % of control. The T/C (dose: 200.0 mg/kg/injection, schedule: Q01DX005 (ip), vehicle: saline) was 108 % of control.

With `COc1ccc(S(=O)(=O)NC(=O)c2ccccc2)cc1` the T/C [2] was 103 % of control, the T/C [3] was 106 % of control and 97 % of control and the T/C (dose: 200.0 mg/kg/injection, schedule: Q04DX003 (ip), vehicle: saline) was 98 % of control and 104 % of control. The T/C (dose: 400.0 mg/kg/injection, schedule: Q04DX003 (ip), vehicle: saline) was 101 % of control.

In the case of `CCOC(=O)c1c(C)csc1NC(C)=O`, the T/C [4] is reported as 120 % of control, the T/C [5] is reported as 115 % of control and the T/C (dose: 400.0 mg/kg/injection, schedule: Q01DX009 (ip), vehicle: saline with Tween-80) is reported as 115 % of control.

For `CC(=N\O)/C(C)=N/O.CC(=N\O)/C(C)=N/O.CCCC1CC[N-]CC1.CCCC1CC[N-]CC1.CCCC1CC[N-]CC1.CCCC1CC[N-]CC1.[Cl-].[Cl-].[Cl][Rh][Cl].[Rh+3]`, the T/C (dose: 2.78 mg/kg/injection, schedule: Q01DX009 (ip), vehicle: saline with Tween-80) was 120 % of control.

`CCC(COC(=O)c1ccc(N(CC)CC)cc1)NC1CCCCC1` (stereo not given) was tested, and the T/C (dose: 60.0 mg/kg/injection, schedule: Q01DX005 (ip), vehicle: saline with Tween-80) was 111 % of control and the T/C (dose: 120.0 mg/kg/injection, schedule: Q01DX005 (ip), vehicle: saline with Tween-80) was 90 % of control.

In the case of `ClC1=NC(Cl)C(Cl)=N/C1=N\c1ncn[nH]1` (stereo not given), the T/C (dose: 4.4 mg/kg/injection, schedule: Q04DX003 (ip), vehicle: saline with Tween-80) is reported as 100 % of control, the T/C (dose: 6.6 mg/kg/injection, schedule: Q04DX003 (ip), vehicle: saline with Tween-80) is reported as 100 % of control and the T/C (dose: 10.0 mg/kg/injection, schedule: Q04DX003 (ip), vehicle: saline with Tween-80) is reported as 90 % of control. For the same compound, the T/C (dose: 15.0 mg/kg/injection, schedule: Q04DX003 (ip), vehicle: saline with Tween-80) was 104 % of control.

`C=CC(=O)Nc1ccc2c(c1)OCCOCCOCCO2` was tested, and the T/C [6] was 101 % of control, the T/C [7] was 102 % of control and the T/C [8] was 100 % of control.

For `COc1cccc2c1C(=O)c1c(O)c3c(c(O)c1C2=O)C[C@@](O)(C(C)O)C[C@@H]3OC1CC(N)C(O)C(C)O1` (stereo not given in full), the T/C (dose: 1.08 mg/kg/injection, schedule: Q01DX009 (ip), vehicle: saline) was 168 % of control, the T/C (dose: 1.8 mg/kg/injection, schedule: Q01DX009 (ip), vehicle: saline) was 163 % of control and 172 % of control and the T/C (dose: 3.0 mg/kg/injection, schedule: Q01DX009 (ip), vehicle: saline) was 159 % of control and 173 % of control. The T/C (dose: 3.0 mg/kg/injection, schedule: Q04DX003 (ip), vehicle: saline) was 150 % of control, the T/C (dose: 5.0 mg/kg/injection, schedule: Q01DX009 (ip), vehicle: saline) was 173 % of control and 195 % of control and the T/C (dose: 5.0 mg/kg/injection, schedule: Q04DX003 (ip), vehicle: saline) was 154 % of control. For the same compound, the T/C (dose: 8.0 mg/kg/injection, schedule: Q01DX001 (ip), vehicle: saline) was 154 % of control, the T/C (dose: 8.0 mg/kg/injection, schedule: Q01DX009 (ip), vehicle: saline) was 150 % of control and the T/C (dose: 8.0 mg/kg/injection, schedule: Q04DX003 (ip), vehicle: saline) was 163 % of control. The T/C (dose: 13.3 mg/kg/injection, schedule: Q01DX009 (ip), vehicle: saline) was 90 % of control, the T/C (dose: 13.3 mg/kg/injection, schedule: Q04DX003 (ip), vehicle: saline) was 172 % of control and the T/C (dose: 22.2 mg/kg/injection, schedule: Q01DX001 (ip), vehicle: saline) was 181 % of control. For the same compound, the T/C (dose: 37.0 mg/kg/injection, schedule: Q01DX001 (ip), vehicle: saline) was 163 % of control, the T/C (dose: 37.0 mg/kg/injection, schedule: Q04DX003 (ip), vehicle: saline) was 100 % of control and the T/C (dose: 61.7 mg/kg/injection, schedule: Q01DX001 (ip), vehicle: saline) was 90 % of control.

For `COC(=O)c1ccc2cc1Nc1c(C#N)cnc(=S)n1-2`, the T/C [9] was 114 % of control, the T/C [4] was 112 % of control and the T/C [5] was 90 % of control.

In the case of `O=C(CC(=O)C(F)(F)F)c1cccs1`, the T/C (dose: 6.25 mg/kg/injection, schedule: Q01DX009 (ip), vehicle: saline with Tween-80) is reported as 100 % of control, the T/C [10] is reported as 100 % of control and 104 % of control and the T/C [11] is reported as 103 % of control and 110 % of control. For the same compound, the T/C [9] was 100 % of control and 111 % of control and 114 % of control.

For `CC[C@@H](C)C(=O)O[C@H]1[C@H](O)[C@H]2[C@@H](CN3C[C@@H](C)CC[C@H]3[C@@]2(C)O)[C@@H]2CC34O[C@]5(O)[C@@H](OC(=O)[C@@](C)(O)CC)CC[C@@]3(C)[C@@H]5[C@@H](OC(C)=O)[C@@H](OC(C)=O)[C@H]4[C@@]21O`, the T/C (dose: 0.1 mg/kg/injection, schedule: Q01DX005 (ip), vehicle: saline) was 102 % of control, the T/C (dose: 0.4 mg/kg/injection, schedule: Q01DX005 (ip), vehicle: saline with Tween-80) was 100 % of control and the T/C (dose: 25.0 micrograms/kg/injection, schedule: Q01DX005 (ip), vehicle: saline) was 97 % of control. For the same compound, the T/C (dose: 50.0 micrograms/kg/injection, schedule: Q01DX005 (ip), vehicle: saline) was 94 % of control and the T/C (dose: 100.0 micrograms/kg/injection, schedule: Q01DX005 (ip), vehicle: saline) was 94 % of control.

In the case of `CNc1nc(N)nc2c1nc(Cl)n2C1OC(CO)C(O)C1O` (stereo not given), the T/C [6] is reported as 102 % of control, the T/C [7] is reported as 101 % of control and the T/C [8] is reported as 95 % of control.

With `CSCS(=O)CC(C)C` (stereo not given) the T/C (dose: 50.0 mg/kg/injection, schedule: Q01DX005 (ip), vehicle: water) was 104 % of control, the T/C (dose: 100.0 mg/kg/injection, schedule: Q01DX005 (ip), vehicle: water) was 102 % of control and the T/C (dose: 200.0 mg/kg/injection, schedule: Q01DX005 (ip), vehicle: water) was 105 % of control.

With `Nc1ncc[n+]2c(COCCCl)[nH]nc12` the T/C (dose: 100.0 mg/kg/injection, schedule: Q01DX001 (ip), vehicle: Klucel (hydroxypropylcellulose) (HPC)) was 92 % of control and the T/C (dose: 200.0 mg/kg/injection, schedule: Q01DX001 (ip), vehicle: Klucel (hydroxypropylcellulose) (HPC)) was 92 % of control.

With `CCOc1ccccc1/C=N\NC(=O)C(=O)N/N=C\c1ccccc1OCC` the T/C (dose: 1.56 mg/kg/injection, schedule: Q01DX009 (ip), vehicle: Klucel (hydroxypropylcellulose) (HPC)) was 98 % of control, the T/C (dose: 3.12 mg/kg/injection, schedule: Q01DX009 (ip), vehicle: Klucel (hydroxypropylcellulose) (HPC)) was 94 % of control and the T/C (dose: 6.25 mg/kg/injection, schedule: Q01DX009 (ip), vehicle: Klucel (hydroxypropylcellulose) (HPC)) was 86 % of control and 91 % of control. The T/C [1] was 90 % of control and the T/C (dose: 200.0 mg/kg/injection, schedule: Q01DX009 (ip), vehicle: Klucel (hydroxypropylcellulose) (HPC)) was 97 % of control.

For `COc1cccc(C(O)c2ccncc2)c1OC` (stereo not given), the T/C (dose: 25.0 mg/kg/injection, schedule: Q01DX009 (ip), vehicle: water) was 90 % of control, the T/C (dose: 50.0 mg/kg/injection, schedule: Q01DX009 (ip), vehicle: water) was 90 % of control and the T/C (dose: 100.0 mg/kg/injection, schedule: Q01DX009 (ip), vehicle: water) was 93 % of control. The T/C (dose: 200.0 mg/kg/injection, schedule: Q01DX009 (ip), vehicle: water) was 90 % of control.

In the case of `CCCCN(CCCC)CCC(=O)c1ccc(OC)c2ccccc12`, the T/C [10] is reported as 110 % of control, the T/C [11] is reported as 119 % of control and the T/C [9] is reported as 111 % of control.

In the case of `OC(c1ccccc1)C1CC=CCC1` (stereo not given), the T/C (dose: 12.5 mg/kg/injection, schedule: Q04DX003 (ip), vehicle: saline) is reported as 97 % of control, the T/C (dose: 25.0 mg/kg/injection, schedule: Q04DX003 (ip), vehicle: saline with Tween-80) is reported as 101 % of control and 98 % of control and the T/C (dose: 25.0 mg/kg/injection, schedule: Q04DX003 (ip), vehicle: saline) is reported as 105 % of control. The T/C (dose: 50.0 mg/kg/injection, schedule: Q04DX003 (ip), vehicle: saline with Tween-80) was 111 % of control and 96 % of control, the T/C [2] was 109 % of control and the T/C (dose: 100.0 mg/kg/injection, schedule: Q04DX003 (ip), vehicle: saline with Tween-80) was 99 % of control. The T/C [3] was 103 % of control and the T/C (dose: 200.0 mg/kg/injection, schedule: Q04DX003 (ip), vehicle: saline with Tween-80) was 99 % of control.
